Test results from patent publication US6407112B1, “Optically active tetrahydrobenzindole derivative” (Meiji Seika Kaisha, Ltd., priority 1998, dated 2002).
Read-outs that look alike come from different tables or passages of the source.

Columns and labels:
[1] = biological target: T1, 5-HT2 receptor (rat cerebral cortex P2 fraction) (Rattus norvegicus, UniProt P14842); assay: 5-HT2 receptor-binding assay ([3H]ketanserin)
T1 construct: Rat cerebral cortex was homogenized in 10 volumes of 0.32 M sucrose solution; from tissue; host or cells: rat cerebral cortex, P2 membrane fraction
T1 sequence (P14842 whole entry): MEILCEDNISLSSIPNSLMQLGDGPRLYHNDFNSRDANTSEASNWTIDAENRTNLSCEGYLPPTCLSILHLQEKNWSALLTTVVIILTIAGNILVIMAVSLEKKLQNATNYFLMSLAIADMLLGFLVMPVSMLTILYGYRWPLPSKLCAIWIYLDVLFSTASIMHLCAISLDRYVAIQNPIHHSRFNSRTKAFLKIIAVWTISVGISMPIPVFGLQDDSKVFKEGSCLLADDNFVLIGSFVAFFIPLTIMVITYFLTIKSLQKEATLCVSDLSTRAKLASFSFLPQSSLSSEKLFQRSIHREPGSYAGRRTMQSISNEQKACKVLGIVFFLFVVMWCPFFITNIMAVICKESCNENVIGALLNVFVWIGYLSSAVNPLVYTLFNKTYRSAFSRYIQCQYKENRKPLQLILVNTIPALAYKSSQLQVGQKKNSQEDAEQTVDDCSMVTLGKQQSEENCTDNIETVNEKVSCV
Experimental: 5-HT2 Receptor-binding Assay
Rat cerebral cortex was homogenized in 10 volumes of 0.32 M sucrose solution. The supernatant obtained by centrifuging at 900×g for 10 minutes was further centrifuged at 11,500×g for 20 minutes. The pellet was resuspended in 50 mM Tris-HCl buffer (pH 7.4) and then centrifuged at 39,900×g for 20 minutes. The final pellet was used a P2 fraction.
P2 fraction was incubated in 50 mM tris-HCl buffer (pH 7.4) containing 1 nM [^3H]ketanserin and the compound of the present invention at 37° C. for 15 minutes and terminated by rapid filtration through GF/B filters. The bound radioactivity was determined by liquid scintillation counter. While, non-specific binding was determined in the presence of 10 μM ketanserin. Thus, the specific binding was calculated from the bound radioactivity after the subtraction of non-specific binding.

[2] = biological target: T2, cloned human 5-HT7 receptor (Homo sapiens, UniProt P34969); assay: 5-HT7 receptor-binding assay ([3H]-5CT); conditions: for Selectivity (ratio of Ki (5-HT2) with Ki (5-HT7)): Ki (5-HT2, rat cortex) / Ki (5-HT7, cloned human)
T2 construct: expressed in transfected cells
T2 sequence (P34969 whole entry): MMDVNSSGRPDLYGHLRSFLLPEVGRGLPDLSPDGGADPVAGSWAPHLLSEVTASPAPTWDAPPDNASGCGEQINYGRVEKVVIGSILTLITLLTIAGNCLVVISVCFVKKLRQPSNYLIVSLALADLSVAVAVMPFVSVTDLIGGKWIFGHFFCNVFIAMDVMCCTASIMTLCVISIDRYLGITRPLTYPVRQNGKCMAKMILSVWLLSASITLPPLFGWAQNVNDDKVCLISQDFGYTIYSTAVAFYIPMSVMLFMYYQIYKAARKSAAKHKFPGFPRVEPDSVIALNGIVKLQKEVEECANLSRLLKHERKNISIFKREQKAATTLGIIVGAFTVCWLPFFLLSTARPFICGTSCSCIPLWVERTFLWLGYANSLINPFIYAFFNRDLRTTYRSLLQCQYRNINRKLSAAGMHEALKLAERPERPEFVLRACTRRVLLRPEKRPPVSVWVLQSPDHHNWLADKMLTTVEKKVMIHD
Experimental: 5-HT7 Receptor-binding Assay
Membranes from culture cells expressing cloned human 5-HT7 receptor were harvested and homogenized in 50 mM Tris-HCl assay buffer (pH 7.4) containing 10 mM MgCl2 and 0.5 mM EDTA with a potter-type homogenizer, and the suspension was centrifuged at 4° C., 39,000×g for 20 minutes. The resulting pellet was resuspended in the assay buffer at a proportion of 1 ml per an amount of a piece of culture petri dish having a diameter of 10 cm, and homogenized again.
The incubation was terminated by rapid filtration through GB/B filter, washed with 6 ml of ice-cold 50 mM Tris-HCl buffer (pH 7.4). The bound radioactivity was determined by liquid scintillation counter. While, non-specific binding was determined in the presence of 10 μM metergoline. The specific binding was calculated from the bound radioactivity after subtraction of non-specific binding.

[3] = rat cerebral cortex P2 fraction, 1 nM [3H]ketanserin, 37° C., 15 minutes, Ki calculated from IC50, read-out: Receptor Binding Affinity Ki Value (5-HT2)
[4] = membranes of cultured cells expressing cloned human 5-HT7 receptor, 1 nM [3H]-5CT, 37° C., 30 minutes, Ki calculated from IC50, read-out: Receptor Binding Affinity Ki Value (5-HT7)

Row | Compound | Ki [1, 3] [nM] | Selectivity (ratio of Ki (5-HT2) with Ki (5-HT7)) [2] | Ki [2, 4] [nM] | Ki [1] [nM] | Ki [2] [nM]
1 | O=C1Nc2cccc3c2C1(CCCCN1CCc2ccccc2C1)CCC3 (racemic) [Racemic Mixture of Synthesis Example 18, reference compound] | 628 | 79 | 8 |  | 
2 | COc1ccccc1N1CCN(CCCC[C@@]23CCCc4cccc(c42)NC3=O)CC1 [Synthesis Example 14, (S)-2a-(4-(4-(2-methoxyphenyl)piperazinyl)butyl)-2a,3,4,5-tetrahydro-1H-benz[cd]indol-2-one] | 84 | 49 | 1.7 |  | 
3 | O=C1Nc2cccc3c2[C@@]1(CCCCN1CC=C(c2ccccc2)CC1)CCC3 [Synthesis Example 15, (S)-2a-(4-(4-phenyl-1,2,3,6-tetrahydropyridin)-1-ylbutyl)-2a,3,4,5-tetrahydro-1H-benz[cd]indol-2-one] |  | 32 |  | 42 | 1.3
4 | CNC(=O)Cn1c2c(c3ccccc31)CCN(CCCCC13CCCc4cccc(c41)NC3=O)C2 (racemic) [Racemic Mixture of Synthesis Example 22, reference compound] | > 1000 | >278 | 3.6 |  | 
5 | O=C1Nc2cccc3c2[C@@]1(CCCCN1CCc2ccccc2C1)CCC3 [Synthesis Example 18, (S)-2a-(4-(1,2,3,4-tetrahydroisoquinolin-2-yl)-butyl)-2a,3,4,5-tetrahydro-1H-benz[cd]indol-2-one] | > 1000 | >125 | 7.7 |  | 
6 | COc1ccccc1N1CCN(CCCCC23CCCc4cccc(c42)NC3=O)CC1 (racemic) [Racemic Mixture of Synthesis Example 14, reference compound] | 60 | 7 |  |  | 
7 | CN(C)C(=O)n1c2c(c3ccccc31)CCN(CCCC[C@@]13CCCc4cccc(c41)NC3=O)C2 [Synthesis Example 17, (S)-2a-[4-(9-dimethylcarbamoyl-2,3,4,9-tetrahydro-1H-pyrido[3,4-b]indol-2-yl)-butyl]-2a,3,4,5-tetrahydro-1H-benz[cd]indol-2-one] | > 1000 | >250 | 4 |  | 
8 | CN(C)C(=O)n1c2c(c3ccccc31)CCN(CCCCC13CCCc4cccc(c41)NC3=O)C2 (racemic) [Racemic Mixture of Synthesis Example 17, reference compound] | 970 | 121 | 8 |  | 
9 | CNC(=O)Cn1c2c(c3ccccc31)CCN(CCCC[C@@]13CCCc4cccc(c41)NC3=O)C2 [Synthesis Example 22, (S)-2a-(4-(9-methylcarbamoylmethyl-2,3,4,9-tetrahydro-1H-pyrido[3,4-b]indol-2-yl)butyl)-2a,3,4,5-tetrahydro-1H-benz[cd]indol-2-one] | > 1000 | >667 | 1.5 |  | 
10 | O=C1Nc2cccc3c2C1(CCCCN1CC=C(c2ccccc2)CC1)CCC3 (racemic) [Racemic Mixture of Synthesis Example 15, reference compound] |  | 10 |  | 92 | 9
